Laboratory results as given in patent US8796303B2, “Imidazo[2,1-G][1,7]naphthyridines for treating respiratory syncytial virus infections” (Biota Scientific Management Pty Ltd., priority 2010, dated 2014).
Converted amounts (≈) assume the structure as drawn. Like-named read-outs stand apart in the source and are kept apart here.

Key:
RSV A2 = assay: RSV antiviral CPE assay in HEp2 cells (MTT); type: cell-based, respiratory syncytial virus; conditions: for EC50: human respiratory syncytial virus, HEp-2, 120 h, HEp2 cells, RSV A2 moi ~0.01, 5 days, CPE by MTT; for activity compared with the 3-substituted isoxazol-4-yls of the present invention: comparative RSV activity
Description: Compounds of the invention were tested for their antiviral activity against respiratory syncytial virus. Cytopathic effect (CPE) assays were performed essentially as described in the literature (see for example Watanabe et al, 1994, J. Virological Methods, 48:257). Serial dilutions of the test compounds were made in 96 well plates. HEp2 cells (1.0×10^4 cells/well) were infected with RSV at a low multiplicity of infection (e.g. RSV A2 at an moi of ˜0.01) and added to plates to assess antiviral activity. Uninfected HEp2 cells were used to assess compound cytotoxicity. Assays were incubated for 5 days at 37° C. in a 5% CO2 atmosphere. The extent of CPE was determined via metabolism of the vital dye 3-(4,5-dimethylthiaxol-2-yl)-2,5-diphenyltetrazolium bromide (MTT). MTT (1 mg/ml) was added to each well and plates incubated for 2 hours incubation at 37° C. Wells were aspirated, iso-propanol (200 μL) was added and absorbance values read at 540/650 nm. Compound concentrations that inhibited CPE by 50% (EC50) and developed cytotoxicity (CC50) were calculated using non-linear regression analysis. The CC50 values of the compounds tested were determined to be >5000 nM.

[1] = Aqueous solubility by laser nephelometry; type: physicochemical; conditions: for solubility at 30 min: kinetic from dmso stock, 1% DMSO, 30 minute incubation at 25° C., range 1.6-100; for solubility compared with the 3-substituted isoxazol-4-yls of the present invention: comparative solubility
Description: Test compounds prepared in DMSO were screened in duplicate over a range of concentrations (1.6-100 ug/mL) in different aqueous media (for example pH2 or pH6.5 buffers which are relevant to the stomach and upper regions of the small intestine). Test compounds were serially diluted in 100% DMSO ranging from 10-0.16 mg/mL. These diluted compounds were then added to test plates (UV Star Griener 96 well plates) containing assay buffers with a further 1:100 dilution keeping a constant 1% DMSO concentration across the plate.

[2] = pH 2, simulated gastric fluid, pH2 buffer, read-out: Solubility at pH2
[3] = pH 6.5, aqueous buffer, pH6.5 buffer, read-out: Solubility at pH6.5

Compound | EC50 (RSV A2) | solubility at 30 min [1, 2] | solubility at 30 min [1, 3] | activity compared with the 3-substituted isoxazol-4-yls of the present invention (RSV A2) | solubility compared with the 3-substituted isoxazol-4-yls of the present invention [1] | drop in activity against the 3-substituted isoxazol-4-yl compound of example 4 (RSV A2; RSV A2 antiviral activity, compared with example 4)
Cc1nocc1C(=O)N1CCN2C(=O)c3nccnc3C[C@]12c1ccc(Cl)cc1 (single isomer, unassigned) [Compound 1A] | 5.2 nM | 50 to 100 µg/mL (≈ 122 to 244 µM) | > 100 µg/mL |  |  | 
Cc1nocc1C(=O)N1CCN2C(=O)c3ncccc3C[C@@]12c1ccc(Cl)cc1 (single isomer, unassigned) [Compound 2B] | 5000 nM |  |  |  |  | 
Cc1nocc1C(=O)N1CCN2C(=O)c3ncccc3C[C@]12c1ccc(F)cc1 (single isomer, unassigned) [Compound 4A] | 16.3 nM | > 100 µg/mL | > 100 µg/mL |  |  | 
Cc1nocc1C(=O)N1CCN2C(=O)c3nccnc3C[C@]12c1ccc(F)cc1 (single isomer, unassigned) [Compound 5A] | 12.4 nM | > 100 µg/mL | > 100 µg/mL |  |  | 
Cc1cc([C@]23Cc4cccnc4C(=O)N2CCN3C(=O)c2conc2C)ccc1F (single isomer, unassigned) [Compound 6A] | 7.7 nM | 50 to 100 µg/mL (≈ 123 to 246 µM) | > 100 µg/mL |  |  | 
Cc1nocc1C(=O)N1CCN2C(=O)c3nccnc3CC12c1ccc(Cl)cc1 (stereo not drawn) [Compound 1, 5a-(4-chlorophenyl)-6-[(3-methyl-1,2-oxazol-4-yl)carbonyl]-5a,6,7,8-tetrahydroimidazo[1′,2′:1,6]pyrido[3,4-b]pyrazin-10(5H)-one] | 6.3 nM | 50 to 100 µg/mL (≈ 122 to 244 µM) | 50 to 100 µg/mL (≈ 122 to 244 µM) |  |  | 
O=C(c1ccno1)N1CCN2C(=O)c3ccccc3CC12c1ccc(Cl)cc1 (stereo not drawn) [Compound 1-025, reference compound] | 1710 nM | 3.1 to 6.3 µg/mL (≈ 7.87 to 16 µM) | 3.1 to 6.3 µg/mL (≈ 7.87 to 16 µM) | less active | less soluble | 
O=C(c1ccon1)N1CCN2C(=O)c3cccc(F)c3CC12c1ccc(Cl)cc1 (stereo not drawn) [Compound 1-086, reference compound] | 175 nM | < 1.6 µg/mL | < 1.6 µg/mL | less active | less soluble | 
O=C(c1ccno1)N1CCN2C(=O)c3cccc(F)c3CC12c1ccc(Cl)cc1 (stereo not drawn) [Compound 1-088, reference compound] | 267 nM | 3.1 to 6.3 µg/mL (≈ 7.53 to 15.3 µM) | 3.1 to 6.3 µg/mL (≈ 7.53 to 15.3 µM) | less active | less soluble | 
O=C(c1ccno1)N1CCN2C(=O)c3cccnc3CC12c1ccc(Cl)cc1 (stereo not drawn) [Compound 1-100, reference compound] | 560 nM |  |  | less active | less soluble | 
COc1ccc(C23Cc4cccnc4C(=O)N2CCN3C(=O)c2conc2C)cc1 (stereo not drawn) [Compound 3, 10a-(4-methoxyphenyl)-1-[(3-methyl-1,2-oxazol-4-yl)carbonyl]-2,3,10,10a-tetrahydroimidazo[2,1-g][1,7]naphthyridin-5(1H)-one] | 83.1 nM | > 100 µg/mL | > 100 µg/mL |  |  | 
Cc1nocc1C(=O)N1CCN2C(=O)c3ncccc3CC12c1ccc(F)cc1 (stereo not drawn) [Compound 4, 10a-(4-fluorophenyl)-1-[(3-methyl-1,2-oxazol-4-yl)carbonyl]-2,3,10,10a-tetrahydroimidazo[2,1-g][1,7]naphthyridin-5(1H)-one] | 27.5 nM | > 100 µg/mL | > 100 µg/mL |  |  | 
Cc1nocc1C(=O)N1CCN2C(=O)c3nccnc3CC12c1ccc(F)cc1 (stereo not drawn) [Compound 5, 5a-(4-fluorophenyl)-6-[(3-methyl-1,2-oxazol-4-yl)carbonyl]-5a,6,7,8-tetrahydroimidazo[1′,2′:1,6]pyrido[3,4-b]pyrazin-10(5H)-one] | 27.6 nM | > 100 µg/mL | > 100 µg/mL |  |  | 
Cc1cc(C23Cc4cccnc4C(=O)N2CCN3C(=O)c2conc2C)ccc1F (stereo not drawn) [Compound 6, 10a-(4-fluoro-3-methylphenyl)-1-[(3-methyl-1,2-oxazol-4-yl)carbonyl]-2,3,10,10a-tetrahydroimidazo[2,1-g][1,7]naphthyridin-5(1H)-one] | 6.4 nM | 25 to 50 µg/mL (≈ 61.5 to 123 µM) | 50 to 100 µg/mL (≈ 123 to 246 µM) |  |  | 
Cc1nocc1C(=O)N1CCN2C(=O)c3ncccc3CC12c1ccc(F)c(F)c1 (stereo not drawn) [Compound 7, 10a-(3,4-difluorophenyl)-1-[(3-methyl-1,2-oxazol-4-yl)carbonyl]-2,3,10,10a-tetrahydroimidazo[2,1-g][1,7]naphthyridin-5(1H)-one] | 35 nM | 25 to 50 µg/mL (≈ 60.9 to 122 µM) | 50 to 100 µg/mL (≈ 122 to 244 µM) |  |  | 
Cc1nocc1C(=O)N1CCN2C(=O)c3nccnc3CC12c1ccc(F)c(F)c1 (stereo not drawn) [Compound 8, 5a-(3,4-difluorophenyl)-6-[(3-methyl-1,2-oxazol-4-yl)carbonyl]-5a,6,7,8-tetrahydroimidazo[1′,2′:1,6]pyrido[3,4-b]pyrazin-10(5H)-one] | 30.5 nM | > 100 µg/mL | > 100 µg/mL |  |  | 
Cc1cc(C23Cc4nccnc4C(=O)N2CCN3C(=O)c2conc2C)ccc1F (stereo not drawn) [Compound 9, 5a-(4-fluoro-3-methylphenyl)-6-[(3-methyl-1,2-oxazol-4-yl)carbonyl]-5a,6,7,8-tetrahydroimidazo[1′,2′:1,6]pyrido[3,4-b]pyrazin-10(5H)-one] | 9 nM | 50 to 100 µg/mL (≈ 123 to 245 µM) | > 100 µg/mL |  |  | 
Cc1nocc1C(=O)N1CCN2C(=O)c3ncccc3CC12c1ccccc1Cl (stereo not drawn) [Compound 10, 10a-(2-chlorophenyl)-1-[(3-methyl-1,2-oxazol-4-yl)carbonyl]-2,3,10,10a-tetrahydroimidazo[2,1-g][1,7]naphthyridin-5(1H)-one] | 36.9 nM | > 100 µg/mL | > 100 µg/mL |  |  | 
Cc1nocc1C(=O)N1CCN2C(=O)c3ncccc3CC12C1CCCCC1 (stereo not drawn) [Compound 11, 10a-cyclohexyl-1-[(3-methyl-1,2-oxazol-4-yl)carbonyl]-2,3,10,10a-tetrahydroimidazo[2,1-g][1,7]naphthyridin-5(1H)-one] | 70 nM | > 100 µg/mL | > 100 µg/mL |  |  | 
Cc1nocc1C(=O)N1CCN2C(=O)c3ncccc3CC12C1CCC(F)(F)CC1 (stereo not drawn) [Compound 12, 10a-(4,4-difluorocyclohexyl)-1-[(3-methyl-1,2-oxazol-4-yl)carbonyl]-2,3,10,10a-tetrahydroimidazo[2,1-g][1,7]naphthyridin-5(1H)-one] | 64.4 nM | 50 to 100 µg/mL (≈ 120 to 240 µM) | > 100 µg/mL |  |  | 
O=C(c1conc1C(F)(F)F)N1CCN2C(=O)c3ncccc3CC12c1ccc(Cl)cc1 (stereo not drawn) [Compound 13, 10a-(4-chlorophenyl)-1-{[3-(trifluoromethyl)-1,2-oxazol-4-yl]carbonyl}-2,3,10,10a-tetrahydroimidazo[2,1-g][1,7]naphthyridin-5(1H)-one] | 7 nM | 50 to 100 µg/mL (≈ 108 to 216 µM) | 50 to 100 µg/mL (≈ 108 to 216 µM) |  |  | 
Cc1nocc1C(=O)N1CCN2C(=O)c3ncccc3CC12c1ccc2c(c1)CCO2 (stereo not drawn) [Compound 14, 10a-(2,3-dihydro-1-benzofuran-5-yl)-1-[(3-methyl-1,2-oxazol-4-yl)carbonyl]-2,3,10,10a-tetrahydroimidazo[2,1-g][1,7]naphthyridin-5(1H)-one] | 13.6 nM | > 100 µg/mL | 50 to 100 µg/mL (≈ 120 to 240 µM) |  |  | 
Cc1oncc1C(=O)N1CCN2C(=O)c3ncccc3CC12c1ccc(F)cc1 (stereo not drawn) [Compound A, reference compound] | 276 nM |  |  |  |  | ten-fold drop in activity
